From patent publication US12692261B2, “Substituted heterocyclic compounds and therapeutic uses thereof” (Bayer Aktiengesellschaft, priority 2020, dated 2026)
Where “and” joins values, the source holds several entries; their conditions need not be identical. Identical values can stand only once. Like-named read-outs stand apart in the source and are kept apart here.

Assays:
[1] = biological target: T1, full-length human CSNK1A1 (Homo sapiens, UniProt P48729); test: CSNK1A1 High ATP Assay (ADP-Glo, 1 mM ATP); type: biochemical; settings: Table 3, read-out: CSNK1A1 high ATP assay IC50 [mol/l] (median);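 also: 30 min kinase reaction at 22 °C with 100 µM peptide substrate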
T1 construct: N-terminal Glutathion-S-Transferase (GST) and full-length human CSNK1A1; purchased Life Technologies PV4174; host or cells: baculovirus infected insect cells
T1 sequence (P48729 whole entry): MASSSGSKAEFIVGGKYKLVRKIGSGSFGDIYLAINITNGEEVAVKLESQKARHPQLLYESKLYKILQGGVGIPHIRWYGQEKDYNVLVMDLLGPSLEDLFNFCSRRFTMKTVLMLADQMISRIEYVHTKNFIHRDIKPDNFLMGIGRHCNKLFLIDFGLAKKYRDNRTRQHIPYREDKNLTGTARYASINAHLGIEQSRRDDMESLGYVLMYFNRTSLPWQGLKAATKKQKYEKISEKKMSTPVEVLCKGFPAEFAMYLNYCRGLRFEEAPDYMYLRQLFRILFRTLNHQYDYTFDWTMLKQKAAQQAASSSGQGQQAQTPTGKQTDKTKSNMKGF
How it was run: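 Kinase activity taken as ADP generated, quantified by ADP-Glo luminescence after 1 h ATP depletion and 1 h detection at 22 °C. Enzyme is GST–full-length human CSNK1A1 (insect cell-expressed), pre-bound to compound for 15 min, with phosphopeptide substrate and 1 mM ATP.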

[2] = biological target: T2, wild-type Epidermal Growth Factor Receptor (EGFR) (Homo sapiens, UniProt P00533); test: WT-EGFR Kinase Assay (TR-FRET, 2 mM ATP); type: biochemical
T2 construct: a fragment of human EGFR (amino acids R669 to A1210); made in house; host or cells: Sf9 insect cells
T2 sequence (P00533 669-1210): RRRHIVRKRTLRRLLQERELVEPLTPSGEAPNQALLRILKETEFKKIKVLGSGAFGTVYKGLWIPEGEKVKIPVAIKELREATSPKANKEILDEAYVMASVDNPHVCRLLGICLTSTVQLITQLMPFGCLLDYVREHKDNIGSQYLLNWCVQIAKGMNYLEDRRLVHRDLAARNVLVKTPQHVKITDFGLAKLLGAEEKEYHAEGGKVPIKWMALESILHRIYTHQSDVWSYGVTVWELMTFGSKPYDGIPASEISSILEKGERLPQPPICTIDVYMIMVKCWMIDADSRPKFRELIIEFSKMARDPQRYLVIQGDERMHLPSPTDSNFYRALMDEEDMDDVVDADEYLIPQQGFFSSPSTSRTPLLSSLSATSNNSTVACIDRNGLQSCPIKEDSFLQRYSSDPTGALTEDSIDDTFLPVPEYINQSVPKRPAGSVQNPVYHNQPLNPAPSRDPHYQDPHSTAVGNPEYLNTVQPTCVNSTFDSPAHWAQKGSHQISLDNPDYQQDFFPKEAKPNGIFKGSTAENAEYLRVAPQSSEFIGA
How it was run: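 GST-fused human EGFR fragment (R669-A1210) from Sf9 cells, typically 7.6 pg/μL, pre-incubated with compound 15 min at 22° C in Hepes pH 7.0 buffer with MgCl2, DTT and vanadate; biotinylated peptide substrate. After EDTA stop, phosphopeptide detected by TR-FRET (anti-phosphotyrosine Tb-cryptate/streptavidin-XL665), 665/620 nm emission ratio.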

[3] = EGFR Wildtyp 2 mM ATP IC50 [mol/l] (median), Table 4
[4] = read-out: EGFR Wildtyp 2 mM ATP IC50 [mol/l] (median), Table 4

Row | SMILES | IC50 [1] [nM] | IC50 [2, 3] | IC50 [2, 4] [µM]
1 | O=C(Nc1cc(-c2[nH]c3ncc(F)nc3c2-c2ccccn2)ccn1)C(CC(F)F)c1ccc(F)cc1 (single isomer, unassigned) [Example 63, (2R or S)-4,4-difluoro-2-(4-fluorophenyl)-N-{4-[2-fluoro-7-(pyridin-2-yl)-5H-pyrrolo[2,3-b]pyrazin-6-yl]pyridin-2-yl}butanamide] | 1.48 | > 20 µM | –
2 | Cc1cnc2c(-c3ccccn3)c(-c3ccnc(NC(=O)C(CC(F)F)c4ccc(F)cc4)c3)[nH]c2n1 (single isomer, unassigned; (+)) [Example 86, (+)-4,4-difluoro-2-(4-fluorophenyl)-N-{4-[3-methyl-7-(pyridin-2-yl)-5H-pyrrolo[2,3-b]pyrazin-6-yl]pyridin-2-yl}butanamide] | 2.89 | > 20 µM | –
3 | O=C(Nc1cc(-c2[nH]c3cc(Cl)cnc3c2-c2ccccn2)ccn1)C(CC(F)F)c1ccc(F)cc1 (single isomer, unassigned) [Example 89, (−)—N-{4-[6-chloro-3-(pyridin-2-yl)-1H-pyrrolo[3,2-b]pyridin-2-yl]pyridin-2-yl}-4,4-difluoro-2-(4-fluorophenyl)butanamide] | 89 | – | > 20
4 | O=C(Nc1cc(-c2[nH]c3c(O[C@H]4CCOC4)cc(F)nc3c2-c2ccccn2)ccn1)C(CC(F)F)c1ccc(F)cc1 (single isomer, unassigned) [Example 54, (2R or S)-4,4-difluoro-N-{4-[5-fluoro-7-{[(3S)-oxolan-3-yl]oxy}-3-(pyridin-2-yl)-1H-pyrrolo[3,2-b]pyridin-2-yl]pyridin-2-yl}-2-(4-fluorophenyl)butanamide] | 4.22 | > 20 µM | –
5 | O=C(Nc1cc(-c2[nH]c3c(OC[C@@H]4COCCO4)cc(F)nc3c2-c2ccccn2)ccn1)C(CC(F)F)c1ccc(F)cc1 (mixture of isomers) [Example 57, (2RS)—N-(4-{7-[(2S)-1,4-dioxan-2-ylmethoxy]-5-fluoro-3-(pyridin-2-yl)-1H-pyrrolo[3,2-b]pyridin-2-yl}pyridin-2-yl)-4,4-difluoro-2-(4-fluorophenyl)butanamide] | 7.89 | > 20 µM | –
6 | O=C(Nc1cc(-c2[nH]c3c(OC[C@H]4COCCO4)cc(F)nc3c2-c2ccccn2)ccn1)C(CC(F)F)c1ccc(F)cc1 (single isomer, unassigned) [Example 51, (2R or S)—N-{4-[7-{[(2R)-1,4-dioxan-2-yl]methoxy}-5-fluoro-3-(pyridin-2-yl)-1H-pyrrolo[3,2-b]pyridin-2-yl]pyridin-2-yl}-4,4-difluoro-2-(4-fluorophenyl)butanamide] | 4.65 | > 20 µM | –
7 | O=C(Nc1cc(-c2[nH]c3c(N4CCNCC4)ccnc3c2-c2ccccn2)ccn1)C(CC(F)F)c1ccc(F)cc1 (racemic) [Example 92, (2RS)-4,4-difluoro-2-(4-fluorophenyl)-N-{4-[7-(piperazin-1-yl)-3-(pyridin-2-yl)-1H-pyrrolo[3,2-b]pyridin-2-yl]pyridin-2-yl}butanamide] | 2.35 | > 20 µM | –
8 | COc1cnc2c(-c3ccccn3)c(-c3ccnc(NC(=O)C(CC(F)F)c4ccc(F)cc4)c3)[nH]c2c1 (single isomer, unassigned) [Example 83, 4,4-difluoro-2-(4-fluorophenyl)-N-{4-[6-methoxy-3-(pyridin-2-yl)-1H-pyrrolo[3,2-b]pyridin-2-yl]pyridin-2-yl}butanamide] | 9.86 | – | > 20
9 | O=C(Nc1cc(-c2[nH]c3ccnnc3c2-c2ccccn2)ccn1)C(CC(F)F)c1ccc(F)cc1 (single isomer, unassigned) [Example 66, (2R or 2S)-4,4-difluoro-2-(4-fluorophenyl)-N-{4-[7-(pyridin-2-yl)-5H-pyrrolo[3,2-c]pyridazin-6-yl]pyridin-2-yl}butanamide] | 2.43 | > 20 µM | –
10 | O=C(Nc1cc(-c2[nH]c3c(O[C@H]4CCOC4)cc(F)nc3c2-c2ccccn2)ccn1)C(CC(F)F)c1ccc(F)cc1 (single isomer, unassigned) [Example 55, (2R or S)-4,4-difluoro-N-{4-[5-fluoro-7-{[(3S)-oxolan-3-yl]oxy}-3-(pyridin-2-yl)-1H-pyrrolo[3,2-b]pyridin-2-yl]pyridin-2-yl}-2-(4-fluorophenyl)butanamide] | 18.3 | – | > 20
11 | O=C(Nc1cc(-c2[nH]c3c(N4CCOCC4)cc(F)nc3c2-c2ccccn2)ccn1)C(CC(F)F)c1ccc(F)cc1 (racemic) [Example 69, (2RS)-4,4-difluoro-N-{4-[5-fluoro-7-(morpholin-4-yl)-3-(pyridin-2-yl)-1H-pyrrolo[3,2-b]pyridin-2-yl]pyridin-2-yl}-2-(4-fluorophenyl)butanamide] | 10.4 | > 20 µM | –
12 | O=C(Nc1cc(-c2[nH]c3nc(F)cnc3c2-c2ccccn2)ccn1)C(CC(F)F)c1ccc(F)cc1 (racemic) [Example 60, (2RS)-4,4-difluoro-2-(4-fluorophenyl)-N-{4-[3-fluoro-7-(pyridin-2-yl)-5H-pyrrolo[2,3-b]pyrazin-6-yl]pyridin-2-yl}butanamide] | 5.81 | > 20 µM | –
13 | O=C(Nc1cc(-c2[nH]c3ccc(F)nc3c2-c2ccccn2)ccn1)[C@@H](CC(F)F)c1ccc(F)cc1 (single isomer, unassigned) [Example 2] | 5 | 18.4 µM and > 20 µM | –
14 | O=C(Nc1cc(-c2[nH]c3c(O[C@H]4CCOC4)cc(F)nc3c2-c2ccccn2)ccn1)C(CC(F)F)c1ccc(F)cc1 (mixture of isomers) [Example 53, (2RS)-4,4-difluoro-N-{4-[5-fluoro-7-{[(3S)-oxolan-3-yl]oxy}-3-(pyridin-2-yl)-1H-pyrrolo[3,2-b]pyridin-2-yl]pyridin-2-yl}-2-(4-fluorophenyl)butanamide] | 6 | > 20 µM | –
15 | COc1cnc2c(-c3ccccn3)c(-c3ccnc(NC(=O)C(CC(F)F)c4ccc(F)cc4)c3)[nH]c2c1 (stereo not shown) [Example 81, 4,4-difluoro-2-(4-fluorophenyl)-N-{4-[6-methoxy-3-(pyridin-2-yl)-1H-pyrrolo[3,2-b]pyridin-2-yl]pyridin-2-yl}butanamide] | 4.02 | > 20 µM | –
16 | O=C(Nc1cc(-c2[nH]c3cc(Cl)nnc3c2-c2ccccn2)ccn1)C(CC(F)F)c1ccc(F)cc1 (racemic) [Example 68, (2RS)—N-{4-[3-chloro-7-(pyridin-2-yl)-5H-pyrrolo[3,2-c]pyridazin-6-yl]pyridin-2-yl}-4,4-difluoro-2-(4-fluorophenyl)butanamide] | 6.93 | > 20 µM | –
17 | Cc1ccnc2c(-c3ccccn3)c(-c3ccnc(NC(=O)C(CC(F)F)c4ccc(F)cc4)c3)[nH]c12 (stereo not shown) [Example 84, 4,4-difluoro-2-(4-fluorophenyl)-N-{4-[7-methyl-3-(pyridin-2-yl)-1H-pyrrolo[3,2-b]pyridin-2-yl]pyridin-2-yl}butanamide] | 4.77 | > 20 µM | –
18 | Cc1cnc2c(-c3ccccn3)c(-c3ccnc(NC(=O)C(CC(F)F)c4ccc(F)cc4)c3)[nH]c2n1 (stereo not shown) [Example 85, 4,4-difluoro-2-(4-fluorophenyl)-N-{4-[3-methyl-7-(pyridin-2-yl)-5H-pyrrolo[2,3-b]pyrazin-6-yl]pyridin-2-yl}butanamide] | 4.21 | > 20 µM | –
19 | O=C(Nc1cc(-c2[nH]c3c(OCC(F)F)ncnc3c2-c2ccccn2)ccn1)C(CC(F)F)c1ccc(F)cc1 (single isomer, unassigned) [Example 79, (2R or S)—N-{4-[4-(2,2-difluoroethoxy)-7-(pyridin-2-yl)-5H-pyrrolo[3,2-d]pyrimidin-6-yl]pyridin-2-yl}-4,4-difluoro-2-(4-fluorophenyl)butanamide] | 3.1 | > 20 µM | –
20 | O=C(Nc1cc(-c2[nH]c3c(O[C@H]4CCOC4)ncnc3c2-c2ccccn2)ccn1)C(CC(F)F)c1ccc(F)cc1 (mixture of isomers) [Example 72, (2RS)-4,4-difluoro-2-(4-fluorophenyl)-N-{4-[4-{[(3S)-oxolan-3-yl]oxy}-7-(pyridin-2-yl)-5H-pyrrolo[3,2-d]pyrimidin-6-yl]pyridin-2-yl}butanamide] | 7.1 | > 20 µM | –
21 | O=C(Nc1cc(-c2[nH]c3ccc(F)nc3c2-c2ccccn2)ccn1)C(CC(F)F)c1ccc(F)cc1 (racemic) [Example 1, 4,4-difluoro-2-(4-fluorophenyl)-N-{4-[5-fluoro-3-(pyridin-2-yl)-1H-pyrrolo[3,2-b]pyridin-2-yl]pyridin-2-yl}butanamide] | 61.3 | > 20 µM | –
22 | O=C(Nc1cc(-c2[nH]c3c(OC[C@H]4COCCO4)cc(F)nc3c2-c2ccccn2)ccn1)C(CC(F)F)c1ccc(F)cc1 (single isomer, unassigned) [Example 52, (2R or S)—N-{4-[7-{[(2R)-1,4-dioxan-2-yl]methoxy}-5-fluoro-3-(pyridin-2-yl)-1H-pyrrolo[3,2-b]pyridin-2-yl]pyridin-2-yl}-4,4-difluoro-2-(4-fluorophenyl)butanamide] | 17.2 | – | > 20
23 | O=C(Nc1cc(-c2[nH]c3ccnnc3c2-c2ccccn2)ccn1)C(CC(F)F)c1ccc(F)cc1 (racemic) [Example 65, (2RS)-4,4-difluoro-2-(4-fluorophenyl)-N-{4-[7-(pyridin-2-yl)-5H-pyrrolo[3,2-c]pyridazin-6-yl]pyridin-2-yl}butanamide] | 2.75 | > 20 µM | –
